Source: patent publication US7115594B2, “Use of 2-methylene-19-nor-20(S)-1α,25-dihydroxyvitamin D3 to increase bone strength” (Wisconsin Alumni Research Foundation, priority 2000, dated 2006)
Entries after “also recorded” stand apart in the source; their conditions may differ.

Experiments:
[1] = system: ovariectomized old female rats; test: Strength of femurs and vertebrae to mechanical stress (animals of Table 1); format: in vivo; conditions: for Stress Value Femur / Stress Value Vertebra: ovariectomized rats
[2] = system: ovariectomized old female rats; test: Treatment of ovariectomized old female rats (bone mass, serum calcium, femur ash); conditions: for BMC / BMC/Body Wt. / BMD / Femur Ash / Femur Ash (%) / Body Wt. / Serum CA: ovariectomized rats, mean ± SEM
[3] = molecular target: T1, porcine intestinal vitamin D receptor (Sus scrofa, UniProt A3RGC1); test: Competitive binding of [3H]-1,25-(OH)2-D3 to the porcine intestinal vitamin D receptor; conditions: FIG. 1, standard 1,25-(OH)2D3
T1 construct: from tissue; host or cells: pig intestine (nuclear receptor preparation)
T1 sequence (A3RGC1 1-427): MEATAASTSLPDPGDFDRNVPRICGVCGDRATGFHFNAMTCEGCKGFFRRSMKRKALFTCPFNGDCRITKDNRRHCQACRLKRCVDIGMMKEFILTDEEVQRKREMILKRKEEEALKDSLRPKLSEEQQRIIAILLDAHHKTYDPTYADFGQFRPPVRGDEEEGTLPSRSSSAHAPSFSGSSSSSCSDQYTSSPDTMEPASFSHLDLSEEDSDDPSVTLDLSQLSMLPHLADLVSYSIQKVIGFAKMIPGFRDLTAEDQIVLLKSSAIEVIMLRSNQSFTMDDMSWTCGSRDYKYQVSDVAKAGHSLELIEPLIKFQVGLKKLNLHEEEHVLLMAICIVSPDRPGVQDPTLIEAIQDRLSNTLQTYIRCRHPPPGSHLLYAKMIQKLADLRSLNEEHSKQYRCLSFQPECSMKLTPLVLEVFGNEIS
Protocol: FIG. 1 is a graph illustrating the relative activity of 2-methylene-19-nor-20(S)-1α,25-dihydroxyvitamin D3, 2-methylene-19-nor-1α,25-dihydroxyvitamin D3 and 1α,25-dihydroxyvitamin D3 to compete for binding of [^3H]-1,25-(OH)2-D3 to the vitamin D pig intestinal nuclear receptor;
Competitive binding of the analogs to the porcine intestinal receptor was carried out by the method described by Dame et al (Biochemistry 25, 4523–4534, 1986).

Rhesus monkeys = test: Single oral dose in Rhesus monkeys, serum calcium; format: in vivo; conditions: single oral dose of 27 μg; 10 Kg Rhesus monkey; preliminary
Source text: FIGS. 7 and 8 snow a six week toxicity study in rats showing that 2MD appears safe at up to 30 pmol/day.
These and other tests indicate that primates will tolerate 2MD extremely well which may give a very large window between efficacy and the danger of hypercalcemia in man.

[4] = system: intestinal calcium transport; test: Intestinal calcium transport activity; format: in vivo; conditions: FIG. 2
Source text: FIG. 2 is a graph illustrating the intestinal calcium transport activity of 2-methylene-19-nor-20(S)-1α,25-dihydroxyvitamin D3 as compared to 1α,25-dihydroxyvitamin D3;
The in vivo tests of increasing serum calcium of rats on a zero calcium diet provides an insight to […] or bone activity of 2MD.

C=C1/C(=C\C=C2/CCC[C@]3(C)[C@@H]([C@H](C)CCCC(C)(C)O)CC[C@@H]23)C[C@@H](O)C[C@@H]1O [1,25(OH)2D3, 1α,25-dihydroxyvitamin D3]
Stress Value Femur ([1]; 250 pmol/day/5X/Week): 118.21 ± 19.85 | Stress Value Vertebra ([1]; 250 pmol/day/5X/Week): 19.24 ± 5.66 | Stress Value Femur ([1]; 500 pmol/d/3-5X/Week): 116.47 ± 16.20 | Stress Value Vertebra ([1]; 500 pmol/d/3-5X/Week): 17.14 ± 0.52 | BMC ([2]; 250 pmol/d 5X/Week, 8 weeks): 8.90 ± 0.40 g | BMC/Body Wt. ([2]; 250 pmol/d 5X/Week, 8 weeks): 22.4 ± 0.48 mg/g | BMD ([2]; 250 pmol/d 5X/Week, 8 weeks): 0.297 ± 0.001 g/cm^2 | BMC ([2]; 250 pmol/d 5X/Week, 17 weeks): 9.6 ± 0.39 g | BMC/Body Wt. ([2]; 250 pmol/d 5X/Week, 17 weeks): 24.5 ± 0.87 mg/g | BMD ([2]; 250 pmol/d 5X/Week, 17 weeks): 0.308 ± 0.008 g/cm^2 | BMC ([2]; 250 pmol/d 5X/Week, 30 weeks): 10.1 ± 0.30 g | BMC/Body Wt. ([2]; 250 pmol/d 5X/Week, 30 weeks): 26.1 ± 0.97 mg/g | BMD ([2]; 250 pmol/d 5X/Week, 30 weeks): 0.310 ± 0.007 g/cm^2 | Femur Ash ([2]; 250 pmol/d 5X/Week, 30 weeks): 417 ± 23 mg | Femur Ash (%) ([2]; 250 pmol/d 5X/Week, 30 weeks): 60.8 ± 1.1% | BMC ([2]; 500 pmol/d 3X/Week, 17 weeks): 11.5 ± 0.25 g | BMC/Body Wt. ([2]; 500 pmol/d 3X/Week, 17 weeks): 27.6 ± 0.68 mg/g | BMD ([2]; 500 pmol/d 3X/Week, 17 weeks): 0.331 ± 0.008 g/cm^2 | BMC ([2]; 500 pmol/d 3X/Week, 30 weeks): 11.8 ± 0.23 g | BMC/Body Wt. ([2]; 500 pmol/d 3X/Week, 30 weeks): 28.0 ± 0.69 mg/g | BMD ([2]; 500 pmol/d 3X/Week, 30 weeks): 0.328 ± 0.008 g/cm^2 | Femur Ash ([2]; 500 pmol/d 3X/Week, 30 weeks): 478 ± 7.5 mg | Femur Ash (%) ([2]; 500 pmol/d 3X/Week, 30 weeks): 61.4 ± 1.3% | BMC ([2]; 500 pmol/d 5X/Week, 8 weeks): 10.2 ± 0.40 g | BMC/Body Wt. ([2]; 500 pmol/d 5X/Week, 8 weeks): 26.3 ± 0.57 mg/g | BMD ([2]; 500 pmol/d 5X/Week, 8 weeks): 0.312 ± 0.005 g/cm^2

C=C1[C@H](O)CC(=C/C=C2\CCC[C@]3(C)[C@@H]([C@@H](C)CCCC(C)(C)O)CC[C@@H]23)C[C@H]1O [2MD, 2-methylene-19-nor-20(S)-1α,25-dihydroxyvitamin D3]
breaking strength in the femurs (cortical strength) ([1]; animals shown in Table 1): increases breaking strength in the femurs | crushing strength in the vertebra (trabecular strength) ([1]; animals shown in Table 1): increases | Stress Value Femur ([1]; 32 pmol/d/2X/Week): 134.84 ± 14.12 | Stress Value Vertebra ([1]; 32 pmol/d/2X/Week): 23.93 ± 6.59 | Stress Value Femur ([1]; 65 pmol/d/1X/Week): 133.71 ± 14.06 | Stress Value Vertebra ([1]; 65 pmol/d/1X/Week): 17.07 ± 5.73 | binding to the vitamin D receptor compared to 1,25-(OH)2D3 [3]: about as active as 1,25(OH)2D3 | binding to the vitamin D receptor compared to 1,25-(OH)2D3 ([3]; listed as 2-methylene-20(S)-19-nor-1,25-(OH)2D3): bound equally well | elevation of serum calcium concentration (Rhesus monkeys): does not cause significant elevation of serum calcium concentration; also recorded: without appreciably elevating serum calcium concentration | activity in stimulating intestinal calcium transport compared to 1,25(OH)2D3 [4]: activity similar to that of 1,25-dihydroxyvitamin D3; also recorded: approximately equal that of 1,25-(OH)2D3 | restoring bone of ovariectomized, old female rats ([2]; 32 pmol given 2 times per week, compared to 1,25(OH)2D3 at high doses 3 times per week): very effective in restoring bone | building bone mass in ovariectomized rats ([2]; compared to the native hormone / sham-operated controls, FIGS. 4 and 6): extraordinarily effective in building bone mass; also recorded: causes an increase in bone mass above that of sham-operated controls | serum calcium concentration in ovariectomized rats ([2]; dosage levels used in the bone mass study): without increasing serum calcium concentration; also recorded: no change in serum calcium | % ash in the femur ([2]; ovariectomized old female rats): increases % ash in the femur; also recorded: percent ash is unexpectedly increased further | BMC ([2]; 32 pmol/d 2X/Week, 8 weeks): 8.4 ± 0.13 g | BMC/Body Wt. ([2]; 32 pmol/d 2X/Week, 8 weeks): 22.4 ± 0.64 mg/g | BMD ([2]; 32 pmol/d 2X/Week, 8 weeks): 0.295 ± 0.009 g/cm^2 | Body Wt. ([2]; 32 pmol/d 2X/Week, 8 weeks): 375 ± 8.2 g | BMC ([2]; 32 pmol/d 2X/Week, 17 weeks): 9.7 ± 0.19 g | BMC/Body Wt. ([2]; 32 pmol/d 2X/Week, 17 weeks): 26.2 ± 0.92 mg/g | BMD ([2]; 32 pmol/d 2X/Week, 17 weeks): 0.313 ± 0.011 g/cm^2 | Body Wt. ([2]; 32 pmol/d 2X/Week, 17 weeks): 373 ± 11.0 g | BMC ([2]; 32 pmol/d 2X/Week, 30 weeks): 11.6 ± 0.40 g | BMC/Body Wt. ([2]; 32 pmol/d 2X/Week, 30 weeks): 33.4 ± 1.60 mg/g | BMD ([2]; 32 pmol/d 2X/Week, 30 weeks): 0.331 ± 0.006 g/cm^2 | Body Wt. ([2]; 32 pmol/d 2X/Week, 30 weeks): 346 ± 11.0 g | Femur Ash ([2]; 32 pmol/d 2X/Week, 30 weeks): 462 ± 21.4 mg | Femur Ash (%) ([2]; 32 pmol/d 2X/Week, 30 weeks): 65.6 ± 1.7% | Serum CA ([2]; 32 pmol/d 2X/Week, 30 weeks): 10.8 ± 0.22 mg/dL | BMC ([2]; 65 pmol/d 1X/Week, 8 weeks): 8.5 ± 0.23 g | BMC/Body Wt. ([2]; 65 pmol/d 1X/Week, 8 weeks): 22.2 ± 0.53 mg/g | BMD ([2]; 65 pmol/d 1X/Week, 8 weeks): 0.293 ± 0.004 g/cm^2 | Body Wt. ([2]; 65 pmol/d 1X/Week, 8 weeks): 408 ± 10.5 g | BMC ([2]; 65 pmol/d 1X/Week, 17 weeks): 9.6 ± 0.24 g | BMC/Body Wt. ([2]; 65 pmol/d 1X/Week, 17 weeks): 24.0 ± 0.80 mg/g | BMD ([2]; 65 pmol/d 1X/Week, 17 weeks): 0.312 ± 0.005 g/cm^2 | Body Wt. ([2]; 65 pmol/d 1X/Week, 17 weeks): 402 ± 11.3 g | BMC ([2]; 65 pmol/d 1X/Week, 30 weeks): 10.2 ± 0.33 g | BMC/Body Wt. ([2]; 65 pmol/d 1X/Week, 30 weeks): 26.0 ± 1.10 mg/g | BMD ([2]; 65 pmol/d 1X/Week, 30 weeks): 0.310 ± 0.009 g/cm^2 | Body Wt. ([2]; 65 pmol/d 1X/Week, 30 weeks): 393 ± 15.0 g | Femur Ash ([2]; 65 pmol/d 1X/Week, 30 weeks): 443 ± 11.6 mg | Femur Ash (%) ([2]; 65 pmol/d 1X/Week, 30 weeks): 62.5 ± 0.57% | Serum CA ([2]; 65 pmol/d 1X/Week, 30 weeks): 10.7 ± 0.46 mg/dL
